Source: patent US20110081315A1, “NOVEL MACROCYCLIC INHIBITORS OF HEPATITIS C VIRUS REPLICATION” (INTERMUNE, INC., priority 2009, published 2011)
Where two headings read alike, the source gives them in different places.

How the values were obtained:
[1] = rcm bond
hepatitis C replicon = hepatitis C replicon EC50 assay; type: cell-based; settings: Hepatitis C virus; hepatitis C replicon; read-out: EC50
Summary of the method: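 Replicon EC50 determined per a referenced patent protocol; assays run at ambient temperature (23° C.) in 50 mM Tris-HCl pH 7.5 with 15% glycerol, 0.6 mM LDAO, 25 μM NS4A peptide and 10 mM DTT.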

NS3/NS4 complexes = NS3/NS4 complexes (Hepatitis C virus genotype 1a, UniProt P27958); assay: NS3/NS4 inhibition assay (IC50); type: biochemical; settings: NS3/NS4 activity; 23° C., 25 μM NS4A peptide
Chain of NS3/NS4 complexes (P27958 1027-1657, one chain of several): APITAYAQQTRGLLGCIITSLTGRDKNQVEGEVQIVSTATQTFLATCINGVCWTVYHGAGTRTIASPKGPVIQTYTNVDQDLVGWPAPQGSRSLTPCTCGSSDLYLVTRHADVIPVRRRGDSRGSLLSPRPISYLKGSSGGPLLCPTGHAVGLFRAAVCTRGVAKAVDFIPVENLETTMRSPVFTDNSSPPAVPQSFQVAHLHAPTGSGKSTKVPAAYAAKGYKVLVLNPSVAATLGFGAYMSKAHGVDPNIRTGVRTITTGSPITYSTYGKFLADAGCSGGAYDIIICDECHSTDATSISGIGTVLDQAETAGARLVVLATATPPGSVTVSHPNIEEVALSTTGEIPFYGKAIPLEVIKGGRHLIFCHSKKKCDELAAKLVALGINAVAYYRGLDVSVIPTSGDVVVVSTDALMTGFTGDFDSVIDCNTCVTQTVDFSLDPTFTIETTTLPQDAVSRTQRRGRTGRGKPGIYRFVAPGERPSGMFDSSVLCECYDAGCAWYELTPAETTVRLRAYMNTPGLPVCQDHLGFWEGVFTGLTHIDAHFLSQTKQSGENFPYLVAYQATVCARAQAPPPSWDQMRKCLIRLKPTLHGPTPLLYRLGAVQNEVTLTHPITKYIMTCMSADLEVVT
Summary of the method: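 Inhibitory concentrations against the NS3/NS4 complex are determined at 23° C. in pH 7.5 buffer (50 mM Tris-HCl) containing 25 μM NS4A peptide, 0.6 mM lauryldimethylamine oxide, 10 mM dithiothreitol and 15% glycerol. EC50 values derive from the hepatitis C replicon assay.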

| Compound | ring closure, yield of all isomers ([1]; from C=CCCCCC[C@H](Nc1ccc(C(F)(F)F)cc1)C(=O)N1C[C@H](Oc2ncc3ncn(C(C)C)c3n2)C[C@H]1C(=O)N[C@]1(C(=O)NS(=O)(=O)C2(C)CC2)C[C@H]1C=C, Zhan catalyst, toluene, 7.78 mM, 65.0 °C, 1.5 h) [%] | ring closure, yield of all isomers ([1]; from C=CCCCCN(C(=O)[C@@H]1C[C@@H](O)C[C@H]1C(=O)N[C@]1(C(=O)OCC)C[C@H]1C=C)c1ccccc1, Hoveyda-Grubbs 2nd generation, DCE, 0.167 mM, 83.0 °C, 16.0 h) [%] | ring closure, yield of all isomers ([1]; from C=CCCCCC[C@H](Nc1cccc(F)c1)C(=O)N1C[C@H](Oc2nc(-c3nc(C(C)C)cs3)nc3c(C)c(OC)ccc23)C[C@H]1C(=O)N[C@]1(C(=O)NS(=O)(=O)C2(C)CC2)C[C@H]1C=C, Zhan catalyst, toluene, 7.24 mM, 65.0 °C, 0.67 h) [%] | EC50 (hepatitis C replicon) [nM] | IC50 (NS3/NS4 complexes) [nM] |
| --- | --- | --- | --- | --- | --- |
| CC(C)n1cnc2cnc(O[C@@H]3C[C@H]4C(=O)N[C@]5(C(=O)NS(=O)(=O)C6(C)CC6)C[C@H]5C=CCCCCC[C@H](Nc5ccc(C(F)(F)F)cc5)C(=O)N4C3)nc21 | 29 | – | – | – | – |
| CCOC(=O)[C@@]12C[C@H]1C=CCCCCN(c1ccccc1)C(=O)[C@@H]1C[C@@H](O)C[C@H]1C(=O)N2 | – | 94.6 | – | – | – |
| COc1ccc2c(O[C@@H]3C[C@H]4C(=O)N[C@]5(C(=O)NS(=O)(=O)C6(C)CC6)C[C@H]5C=CCCCCC[C@H](Nc5cccc(F)c5)C(=O)N4C3)nc(-c3nc(C(C)C)cs3)nc2c1C | – | – | 24 | – | – |
| CC(C)n1c(O[C@@H]2C[C@H]3C(=O)N[C@]4(C(=O)NS(=O)(=O)C5(C)CC5)C[C@H]4/C=C\CCCCC[C@H](NC(=O)OC(C)(C)C)C(=O)N3C2)nc2c(-c3nc(C4CCCCC4)cs3)cccc21 [Compound 1769] | – | – | – | < 10 | < 10 |
| CC(C)n1c(O[C@@H]2C[C@H]3C(=O)N[C@]4(C(=O)NS(=O)(=O)N(C)C)C[C@H]4/C=C\CCCCC[C@H](NC(=O)OC(C)(C)C)C(=O)N3C2)nc2c(-c3nc(C4CCCCC4)cs3)cccc21 [Compound 1770] | – | – | – | 10 to 100 | < 10 |
| CC(C)n1c(O[C@@H]2C[C@H]3C(=O)N[C@]4(C(=O)NS(=O)(=O)C5(C)CC5)C[C@H]4/C=C\CCCCC[C@H](NC(=O)OC(C)(C)C)C(=O)N3C2)nc2c(-c3nc(C4CCC4)cs3)cccc21 [Compound 1771] | – | – | – | < 10 | < 10 |
| CC(C)n1c(O[C@@H]2C[C@H]3C(=O)N[C@]4(C(=O)NS(=O)(=O)N(C)C)C[C@H]4/C=C\CCCCC[C@H](NC(=O)OC(C)(C)C)C(=O)N3C2)nc2c(-c3nc(CC4CCCCC4)cs3)cccc21 [Compound 1772] | – | – | – | 10 to 100 | < 10 |
| CC(C)n1c(O[C@@H]2C[C@H]3C(=O)N[C@]4(C(=O)NS(=O)(=O)C5(C)CC5)C[C@H]4/C=C\CCCCC[C@H](NC(=O)OC(C)(C)C)C(=O)N3C2)nc2c(-c3nc(CC4CCCCC4)cs3)cccc21 [Compound 1773] | – | – | – | < 10 | < 10 |
| CC(C)n1c(O[C@@H]2C[C@H]3C(=O)N[C@]4(C(=O)NS(=O)(=O)C5(C)CC5)C[C@H]4/C=C\CCCCC[C@H](NC(=O)OC(C)(C)C)C(=O)N3C2)nc2c(-c3nc4c(s3)CCCC4(C)C)cccc21 [Compound 1774] | – | – | – | 10 to 100 | < 10 |
| CC(C)n1c(O[C@@H]2C[C@H]3C(=O)N[C@]4(C(=O)NS(=O)(=O)N(C)C)C[C@H]4/C=C\CCCCC[C@H](NC(=O)OC(C)(C)C)C(=O)N3C2)nc2c(-c3nc4c(s3)CCCC4(C)C)cccc21 [Compound 1775] | – | – | – | 10 to 100 | < 10 |
| CC(C)n1c(O[C@@H]2C[C@H]3C(=O)N[C@]4(C(=O)NS(=O)(=O)N(C)C)C[C@H]4/C=C\CCCCC[C@H](NC(=O)OC(C)(C)C)C(=O)N3C2)nc2c(-c3nc(C4CC4)cs3)cccc21 [Compound 1776] | – | – | – | < 10 | < 10 |
| CC(C)n1c(O[C@@H]2C[C@H]3C(=O)N[C@]4(C(=O)NS(=O)(=O)C5(C)CC5)C[C@H]4/C=C\CCCCC[C@H](NC(=O)OC(C)(C)C)C(=O)N3C2)nc2c(-c3nc(C4CC4)cs3)cccc21 [Compound 1777] | – | – | – | < 10 | < 10 |
| CC(C)n1c(O[C@@H]2C[C@H]3C(=O)N[C@]4(C(=O)NS(=O)(=O)C5(C)CC5)C[C@H]4/C=C\CCCCC[C@H](NC(=O)OC(C)(C)C)C(=O)N3C2)nc2ncccc21 [Compound 1779] | – | – | – | 10 to 100 | < 10 |
| CC(C)n1c(O[C@@H]2C[C@H]3C(=O)N[C@]4(C(=O)NS(=O)(=O)N(C)C)C[C@H]4/C=C\CCCCC[C@H](NC(=O)OC(C)(C)C)C(=O)N3C2)nc2ncccc21 [Compound 1780] | – | – | – | 10 to 100 | < 10 |
